Assay results from patent US20240139189A1, “N6-ADENOSINE-[…] INHIBITORS IN CANCER TREATMENT” (priority 2021, published 2024).
Converted amounts (≈) assume the structure as drawn.

Experiments:
METTL3 = METTL3 (Homo sapiens (Human), UniProt Q86U44); experiment: TR-FRET biochemical assay (time resolved-Förster resonance energy transfer); details: for LLE (lipophilic ligand efficiency, pIC50-logP): calculated with DataWarrior; for potency reduction / loss: relative to parent compound
From the text: The bonds formed are depicted in red. The IC50 values refer to the biochemical assay based on time resolved-Forster resonance energy transfer (TR-FRET). B) Superimposition of compounds 1 (grey, from X-ray with METTL3, PDB code: 7NHI) and 2 (cyan, drawn in Pymol).

[1] = Rat liver microsomes
in vitro = details: rat, microsomes
METTL3/METTL14 = METTL3/METTL14 (Homo sapiens (Human), UniProt Q86U44); experiment: Protein thermal shift assay, METTL3/METTL14; details: read-out: ΔTm
Sequence of METTL3/METTL14 (Q86U44 whole entry, looked up): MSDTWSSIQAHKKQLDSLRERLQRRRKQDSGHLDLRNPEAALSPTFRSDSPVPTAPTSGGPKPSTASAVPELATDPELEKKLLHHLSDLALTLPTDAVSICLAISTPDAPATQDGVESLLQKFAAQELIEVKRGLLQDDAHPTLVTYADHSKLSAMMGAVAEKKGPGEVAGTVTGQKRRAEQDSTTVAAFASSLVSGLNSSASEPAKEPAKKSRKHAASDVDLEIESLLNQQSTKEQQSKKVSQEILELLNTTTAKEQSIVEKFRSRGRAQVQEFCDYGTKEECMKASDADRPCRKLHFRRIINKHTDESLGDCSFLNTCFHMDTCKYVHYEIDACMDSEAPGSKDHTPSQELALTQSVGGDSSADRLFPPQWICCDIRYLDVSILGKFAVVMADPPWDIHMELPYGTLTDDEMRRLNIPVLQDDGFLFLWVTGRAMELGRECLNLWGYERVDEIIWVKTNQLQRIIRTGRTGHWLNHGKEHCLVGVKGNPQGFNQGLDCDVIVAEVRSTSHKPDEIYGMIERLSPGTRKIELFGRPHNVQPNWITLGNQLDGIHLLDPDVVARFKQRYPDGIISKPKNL
Sequence of METTL3/METTL14 (Q9HCE5 whole entry partner, looked up): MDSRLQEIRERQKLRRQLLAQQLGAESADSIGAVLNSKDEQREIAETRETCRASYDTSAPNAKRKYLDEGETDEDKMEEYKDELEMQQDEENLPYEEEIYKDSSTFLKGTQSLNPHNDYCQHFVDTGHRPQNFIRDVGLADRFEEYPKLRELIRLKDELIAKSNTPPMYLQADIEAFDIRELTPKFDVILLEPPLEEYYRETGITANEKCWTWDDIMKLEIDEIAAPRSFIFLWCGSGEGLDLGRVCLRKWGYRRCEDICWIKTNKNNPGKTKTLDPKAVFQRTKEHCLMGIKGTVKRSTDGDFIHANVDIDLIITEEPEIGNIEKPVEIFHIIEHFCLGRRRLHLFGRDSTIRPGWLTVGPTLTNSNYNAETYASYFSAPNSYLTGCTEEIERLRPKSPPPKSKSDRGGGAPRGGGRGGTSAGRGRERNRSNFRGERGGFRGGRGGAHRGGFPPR

[2] = IC50 data for N6-adenosine-methyltransferase

Sequence of METTL3 (Q86U44 whole entry, looked up): as the sequence (Q86U44 whole entry, looked up) above
Sequence of METTL3 (Q9HCE5 whole entry partner, looked up): as the sequence (Q9HCE5 whole entry partner, looked up) above

| SMILES | LE (ligand efficiency) (METTL3) | IC50 (METTL3; TR-FRET assay) [nM] | LLE (lipophilic ligand efficiency, pIC50-logP) (METTL3) | IC50 (METTL3; [2]) [nM] | further results |
| --- | --- | --- | --- | --- | --- |
| CNc1cc(N2CCCC(O)(CNC(=O)c3ccc(CN4CCC(C)(C)CC4)cc3)C2)ncn1 (stereo not shown) [Compound 1] | 0.21 kcal.mol^-1.heavy atom count^-1 | 8200 | 2.5 |  |  |
| CC1(C)CCN(Cc2ccc(C(=O)NC3CCN(c4cc(NCc5ccccc5)ncn4)CC3)cn2)CC1 [Compound 6] | 0.20 kcal.mol^-1.heavy atom count^-1 | 3600 | 1.7 |  |  |
| CC1(C)CCN(Cc2ccc(N3CCOC4(CCN(c5cc(NCc6ccccc6)ncn5)CC4)C3)cn2)CC1 [Compound 7, N-Benzyl-6-(4-(6-((4,4-dimethylpiperidin-1-yl)methyl)pyridin-3-yl)-1-oxa-4,9-diazaspiro[5.5]undecan-9-yl)pyrimidin-4-amine] |  | 280 |  | 280 |  |
| CC1(C)CCN(Cc2ccc(N3CC(=O)NC4(CCN(c5cc(NCc6ccccc6)ncn5)CC4)C3)cn2)CC1 [Compound 8, 9-(6-(Benzylamino)pyrimidin-4-yl)-4-(6-((4,4-dimethylpiperidin-1-yl)methyl)pyridin-3-yl)-1,4,9-triazaspiro[5.5]undecan-2-one] |  | 37 |  | 37 |  |
| CC1(C)CCN(Cc2ccc(N3CC(=O)NC4(CCN(c5cc(NCc6ccccc6)ncn5)CC4)C3)cc2)CC1 [Compound 9, 9-(6-(Benzylamino)pyrimidin-4-yl)-4-(4-((4,4-dimethylpiperidin-1-yl)methyl)phenyl)-1,4,9-triazaspiro[5.5]undecan-2-one] |  | 26 |  | 26 |  |
| CNc1cc(N2CC3(CN(c4ccc(CN5CCC(C)(C)CC5)cc4)CC(=O)N3)C2)ncn1 [Compound 11, 8-(4-((4,4-Dimethylpiperidin-1-yl)methyl)phenyl)-2-(6-(methylamino)pyrimidin-4-yl)-2,5,8-triazaspiro[3.5]nonan-6-one] | 0.26 kcal.mol^-1.heavy atom count^-1 | 440 | 4.5 | 440 | potency reduction / loss (METTL3): 5 fold; RLM t1/2 [1]: 70 min; Kinetic solubility (Kinetic solubility): 86 µM |
| CNc1cc(N2CCC3(CC2)CN(c2ccc(CN4CCC(C)(C)CC4)cc2)C(=O)N3)ncn1 [Compound 12] | 0.23 kcal.mol^-1.heavy atom count^-1 | 1800 | 2.6 |  | potency reduction / loss (METTL3): 20 fold |
| CN(C)c1cc(N2CCC3(CC2)CN(c2ccc(CN4CCC(C)(C)CC4)cc2)CC(=O)N3)ncn1 [Compound 14] | 0.23 kcal.mol^-1.heavy atom count^-1 | 970 | 3.2 |  |  |
| CC(C)Nc1cc(N2CCC3(CC2)CN(c2ccc(CN4CCC(C)(C)CC4)cc2)CC(=O)N3)ncn1 [Compound 15, 4-(4-((4,4-Dimethylpiperidin-1-yl)methyl)phenyl)-9-(6-(isopropylamino)pyrimidin-4-yl)-1,4,9-triazaspiro[5.5]undecan-2-one] | 0.24 kcal.mol^-1.heavy atom count^-1 | 330 | 3.2 | 330 |  |
| CC1(C)CCN(Cc2ccc(N3CC(=O)NC4(CCN(c5cc(NC6CC6)ncn5)CC4)C3)cc2)CC1 [Compound 16, 9-(6-(Cyclopropylamino)pyrimidin-4-yl)-4-(4-((4,4-dimethylpiperidin-1-yl)methyl)phenyl)-1,4,9-triazaspiro[5.5]undecan-2-one] |  | 84 |  | 84 |  |
| CC1(C)CCN(Cc2ccc(N3CC(=O)NC4(CCN(c5ncnc6[nH]ccc56)CC4)C3)cc2)CC1 [Compound 17, 4-(4-((4,4-Dimethylpiperidin-1-yl)methyl)phenyl)-9-(7H-pyrrolo[2,3-d]pyrimidin-4-yl)-1,4,9-triazaspiro[5.5]undecan-2-one] |  | 61 |  | 61 |  |
| CC1(C)CCN(Cc2ccc(N3CC(=O)NC4(CCN(c5ccnc6[nH]ccc56)CC4)C3)cc2)CC1 [Compound 18] | 0.20 kcal.mol^-1.heavy atom count^-1 | 4500 | 2.3 |  | potency reduction / loss (METTL3): 74 fold |
| CC1(C)CCN(Cc2ccc(N3CC(=O)NC4(CCN(c5nc(Cl)nc6[nH]ccc56)CC4)C3)cc2)CC1 [Compound 19, 9-(2-Chloro-7H-pyrrolo[2,3-d]pyrimidin-4-yl)-4-(4-((4,4-dimethylpiperidin-1-yl)methyl)phenyl)-1,4,9-triazaspiro[5.5]undecan-2-one] | 0.28 kcal.mol^-1.heavy atom count^-1 | 24 | 3.9 | 24 | RLM t1/2 [1]: 32 min; Kinetic solubility (Kinetic solubility): 45 µM; solubility kinetic (Kinetic solubility; kinetic from dmso stock): 45 µM (≈ 23.5 µg/mL); half-life (in vitro): 32 min |
| CNc1cc(N2CCC3(CC2)CN(c2ccc(CN4CCC(C)(C)CC4)cc2F)CC(=O)N3)ncn1 [Compound 20, 4-(4-((4,4-Dimethylpiperidin-1-yl)methyl)-2-fluorophenyl)-9-(6-(methylamino)pyrimidin-4-yl)-1,4,9-triazaspiro[5.5]undecan-2-one] |  | 38 |  | 38 |  |
| CNc1cc(N2CCC3(CC2)CN(c2ccc(CN4CCC(C)(C)CC4)c(F)c2)CC(=O)N3)ncn1 [Compound 21, 4-(4-((4,4-Dimethylpiperidin-1-yl)methyl)-3-fluorophenyl)-9-(6-(methylamino)pyrimidin-4-yl)-1,4,9-triazaspiro[5.5]undecan-2-one] |  | 32 |  | 32 |  |
| CNc1cc(N2CCC3(CC2)CN(c2cc(F)c(CN4CCC(C)(C)CC4)cc2F)CC(=O)N3)ncn1 [Compound 22, 4-(4-((4,4-Dimethylpiperidin-1-yl)methyl)-2,5-difluorophenyl)-9-(6-(methylamino)pyrimidin-4-yl)-1,4,9-triazaspiro[5.5]undecan-2-one] |  |  |  |  | ΔTm at 100 µM (METTL3/METTL14): 4.7 °C |
| Nc1ncnc2c1ncn2[C@@H]1O[C@H](CSCC[C@H](N)C(=O)O)[C@@H](O)[C@H]1O [SAH, S-adenosyl-L-homocysteine, reference compound] |  |  |  |  | ΔTm at 100 µM (METTL3/METTL14): 2.8 °C |
